Laboratory results reported in US10709707B2, “Methods of treating ocular conditions” (Oyster Point Pharma, Inc., priority 2016, dated 2020).
Read-outs that look alike come from different tables or passages of the source.

How the values were obtained:
[1] = system: subjects (intranasal administration); experiment: Panel of compounds administered intranasally: effect on tearing and discomfort response
Procedure: (§2) A panel of twenty compounds with various receptor binding profiles, including other nicotinic acetylcholine receptor (nAchR) agonists were tested. At the onset of the experiment, 50 microliters of a 0.01 mg/mL compound formulation was administered intranasally to three subjects.

[2] = system: formalin test; experiment: Analgesic effects, formalin test; format: in vivo, Mouse: CD-1; details: Compound 1 0.1, 1 and 10 mg/kg, Aspirin 100 mg/kg, Morphine 30 mg/kg; for analgesic effects after formalin injection, Day 1: po
[3] = system: subjects (intranasal administration); details: in vivo
Procedure: as §2

[4] = system: paclitaxel-induced neuropathy, allodynia; experiment: Reversing symptoms of paclitaxel-induced neuropathy; format: in vivo, Rat; details: 100 mg/kg ip, 90 min before testing, Weeks 3 and 4 post-paclitaxel
[5] = system: behavioral sensitization; experiment: CNS safety pharmacology, behavioral sensitization by motor activity; format: in vivo, Rat: Sprague-Dawley; details: Compound 1 3, 10, 30 mg/kg po
[6] = excretion of radioactivity in monkey; format: in vivo; details: for administered radioactive dose recovered in cage wash / administered radioactive dose recovered in diet debris / administered radioactive dose recovered in feces / administered radioactive dose recovered in urine / administered radioactive dose recovered, total: 168-hour period
[7] = metabolism in vivo after single po dose in rats; details: rat, 30 mg/kg
Procedure: The main metabolite in plasma and urine was M9; in plasma from 6 to 24 hours post-dose an unknown polar metabolite (M13) accounted for a significant portion of total radioactivity. In plasma, parent accounted for 11.7% of AUC0-24 total radioactivity, M9 accounted for 20.9% and M13 accounted for 15.9%. In urine (the primary route of elimination) over a 24 hours period, parent accounted for 17.8% of total radioactivity, M9 accounted for 37.7% and M13 accounted for 0.7%.

[8] = system: cryopreserved hepatocytes; experiment: 24-hour incubation in cryopreserved hepatocytes (monkey); format: in vitro ADME
From the text: (§1) In human and monkey, the primary route of metabolism was through oxidation of the pyrrolidine ring (metabolite M02) before further metabolism via dioxidation to M1 or M3. In humans, parent accounted for 37% of extracellular radioactivity, M02 was 13.9%.M1 was 4.1% and M3 was 1.1%. In monkey, parent accounted for 14.2%, M02 was 5.0%, M1 was 5.8% and M3 was 29.4%. In the rat, the primary metabolite is an N-oxide-pyrimidine derivative (M9); it accounted for 71.9% of extracellular radioactivity while parent represented only 1.4%.

[9] = distribution studies with [14C]-Compound 1 in Long Evans and Sprague-Dawley rat; format: in vivo
From the text: In male and female Sprague-Dawley rats, tissue distribution appeared similar to that of the Long Evans rat.

[10] = system: cryopreserved hepatocytes from rat, dog, monkey and human; experiment: 24-hour incubation in cryopreserved hepatocytes, species comparison; format: in vitro ADME
From the text: as §1

[11] = system: cryopreserved hepatocytes; experiment: 24-hour incubation in cryopreserved hepatocytes (rat); format: in vitro ADME
From the text: as §1

[12] = system: cryopreserved hepatocytes; experiment: 24-hour incubation in cryopreserved hepatocytes (human); format: in vitro ADME
From the text: as §1

[13] = excretion of radioactivity in Sprague-Dawley rat; details: 30 mg/kg po
[14] = system: STZ rat model of diabetic neuropathy; experiment: Mechanical allodynia, STZ rat model of diabetic neuropathy; format: in vivo, Rat: Sprague-Dawley; details: insulin-treated group
[15] = 50 microliters intranasally, three subjects, 0.01 mg/mL increased logarithmically up to 10 mg/mL

Compound: Cc1cc([C@@H]2CCCN2C)on1 [ABT-418]
- Causes Tearing [1, 15]: Yes
- Discomfort Response [1, 15]: Moderate

Compound: CC(=O)Oc1ccccc1C(=O)O [Aspirin]
- analgesic effects after formalin injection, Day 1 [2]: mg/kg) and Aspirin at 100 mg/kg failed

Compound: O=Cc1ccccc1 [Benzaldehyde]
- Causes Tearing [1, 15]: No
- Discomfort Response [1, 15]: No

Compound: CNCCc1ccccn1 [Betahistine]
- Causes Tearing [1, 15]: No
- Discomfort Response [1, 15]: No

Compound: CC12CCC(CC1=O)C2(C)C (stereo not drawn) [Camphor]
- Causes Tearing [1, 15]: No
- Discomfort Response [1, 15]: No

Compound: COc1cc(CNC(=O)CCCC/C=C/C(C)C)ccc1O [Capsaicin]
- Causes Tearing [1, 15]: Yes
- Discomfort Response [1, 15]: Severe

Compound: Cc1ccc(C(C)C)cc1O [Carvacrol]
- Causes Tearing [1, 15]: Yes
- Discomfort Response ([1]; in vivo): Severe

Compound: O=c1cccc2n1C[C@@H]1CNC[C@H]2C1 [Cytisine]
- Discomfort Response [3]: Moderate
- Causes Tearing ([1]; in vivo): Partial

Compound: CC[N+](CC)(CC(=O)Nc1c(C)cccc1C)Cc1ccccc1 [Denatonium]
- Causes Tearing [1, 15]: No
- Discomfort Response [1, 15]: No

Compound: CCOc1cc(C=O)ccc1O [Ethylvanillin]
- Causes Tearing [1, 15]: No

Compound: CC12CCC(CC1)C(C)(C)O2 [Eucaliptol]
- Causes Tearing [1, 15]: No
- Discomfort Response [1, 15]: No

Compound: C=CCc1ccc(O)c(OC)c1 [Eugenol]
- Causes Tearing [1, 15]: No
- Discomfort Response [1, 15]: No

Compound: COc1ccc(/C=C2\CCCN=C2c2cccnc2)c(OC)c1 [GTS-21]
- Causes Tearing [1, 15]: Yes
- Discomfort Response [1, 15]: Severe

Compound: NCC1(CC(=O)O)CCCCC1 [Gabapentin, reference compound]
- reversing allodynia [4]: 100 mg/kg, was effective at reversing

Compound: CC(C)=CCC/C(C)=C/CO [Geraniol]
- Causes Tearing [1, 15]: No
- Discomfort Response [1, 15]: No

Compound: CC1CCC(C(C)C)C(O)C1 (stereo not drawn) [Menthol]
- Causes Tearing [1, 15]: No
- Discomfort Response [1, 15]: No

Compound: CN1CC[C@]23c4c5ccc(O)c4O[C@H]2[C@@H](O)C=C[C@H]3[C@H]1C5 [Morphine]
- analgesic activity after formalin injection, Day 7 ([2]; once daily for 7 days po): mg/kg) persisted on Day 7.
- analgesic effects after formalin injection, Day 1 [2]: mg/kg, po) produced a significant

Compound: CN1CCCC1c1cccnc1 (stereo not drawn) [Nicotine]
- behavioral sensitization (motor activity) [5]: marked behavioral sensitization.
- Discomfort Response [3]: Severe
- Causes Tearing [1, 15]: Yes

Compound: O=C(N[C@H]1CN2CCC1CC2)c1cc2ccoc2cn1 [PHA-543613]
- Causes Tearing [1, 15]: No
- Discomfort Response [1, 15]: No

Compound: CC(C)=C1CC[C@@H](C)CC1=O [Pulegone]
- Causes Tearing [1, 15]: No
- Discomfort Response ([1]; in vivo): No

Compound: O=C(N[C@@H]1C2CCN(CC2)[C@H]1Cc1cccnc1)c1cc(F)cc(F)c1 [TC-6987]
- Causes Tearing [1, 15]: No
- Discomfort Response [1, 15]: No

Compound: c1cnc2cc3c(cc2n1)[C@@H]1CNC[C@H]3C1 [Varenicline]
- Causes Tearing [1, 15]: Yes
- Discomfort Response [1, 15]: No

Compound: C(=C\[C@H]1CCNC1)/c1cncnc1 [[^14C]-Compound 1]
- time by which nearly all recovered radioactivity was eliminated ([6]; 5 mg/kg iv infusion): ≤ 24 h
- administered radioactive dose recovered in cage wash ([6]; 5 mg/kg iv infusion): 7.6%
- administered radioactive dose recovered in diet debris ([6]; 5 mg/kg iv infusion): 6.9%
- administered radioactive dose recovered in feces ([6]; 5 mg/kg iv infusion): 7.6%
- administered radioactive dose recovered in urine ([6]; 5 mg/kg iv infusion): 70.7%
- administered radioactive dose recovered, total ([6]; 5 mg/kg iv infusion): 93.0%
- time by which nearly all recovered radioactivity was eliminated ([6]; 10 mg/kg po): ≤ 48 h
- administered radioactive dose recovered in cage wash ([6]; 10 mg/kg po): 10.2%
- administered radioactive dose recovered in diet debris ([6]; 10 mg/kg po): 6.6%
- administered radioactive dose recovered in feces ([6]; 10 mg/kg po): 12.8%
- administered radioactive dose recovered in urine ([6]; 10 mg/kg po): 60.7%
- administered radioactive dose recovered, total ([6]; 10 mg/kg po): 90.3%
- extent of metabolism in vivo [7]: extensively metabolized
- share of AUC0-24 total radioactivity in plasma [7]: 11.7%
- share of total radioactivity in urine [7]: 17.8%
- share of extracellular radioactivity [8]: 14.2%
- tissue with highest concentration of radioactivity at final sampling time ([9]; male Long Evans rat, 1 mg/kg po, 168 hours): adrenal medulla
- tissue with highest concentration of radioactivity at final sampling time ([9]; male and female Sprague-Dawley rats, 30 mg/kg po, 24 hours): adrenal medulla
- species ranking of metabolism [10]: rat>monkey>human>dog
- extent of metabolism ([10]; depending on species): slightly to moderately metabolized
- share of extracellular radioactivity [11]: 1.4%
- share of extracellular radioactivity [12]: 37%
- time by which nearly all recovered radioactivity was eliminated [13]: ≤ 24 h
- administered dose recovered in feces ([13]; 168 hour period): 10.9%
- administered dose recovered in urine ([13]; 168 hour period): 77.6%
- administered dose recovered, total ([13]; 168 hour period post-dose): 91.2%

Compound: insulin: insulin-treated group in the STZ rat model
- significant improvement in pain sensitivity [14]: glucose levels but no
